Our source for the EC50 and IC50 values is ChEMBL document CHEMBL1137623, “Synthesis and in-vitro biological activity of macrocyclic urea Chk1 inhibitors” (Bioorg Med Chem Lett, 2007).

Structures are written as SMILES.

The subject of test [1] is HeLa. Description: Antiproliferative activity against human HeLa cells by MTS assay. Format: functional, cell-based.
For test [2], the target named is T1, Serine/threonine-protein kinase Chk1 (Homo sapiens, UniProt O14757).
T1 sequence (O14757 whole entry): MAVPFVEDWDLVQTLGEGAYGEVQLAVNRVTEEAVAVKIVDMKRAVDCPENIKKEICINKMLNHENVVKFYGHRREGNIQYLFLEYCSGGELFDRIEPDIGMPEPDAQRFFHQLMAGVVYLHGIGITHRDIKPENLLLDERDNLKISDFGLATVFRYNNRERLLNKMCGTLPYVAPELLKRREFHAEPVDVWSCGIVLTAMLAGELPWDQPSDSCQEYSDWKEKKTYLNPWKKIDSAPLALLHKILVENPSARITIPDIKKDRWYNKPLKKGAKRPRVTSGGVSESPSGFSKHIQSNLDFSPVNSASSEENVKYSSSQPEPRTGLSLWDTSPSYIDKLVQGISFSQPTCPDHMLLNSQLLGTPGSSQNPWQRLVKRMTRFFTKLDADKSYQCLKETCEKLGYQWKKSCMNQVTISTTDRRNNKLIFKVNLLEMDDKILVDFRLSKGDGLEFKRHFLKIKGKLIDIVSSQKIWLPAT
Briefly: Inhibition of Chk1 enzyme by radiometric assay.

Test [3] concerns NCI-H1299. Briefly: Cell cycle arrest in human NCI-H1299 cells assessed as accumulation at G2/M phase by FACS. The class given is functional, cell-based.

For the compound `N#Cc1ncc2nc1OCCCCCOc1ccc(Cl)cc1NC(=O)N2`, the EC50 (as a rule, the concentration needed to bring the measured effect to its halfway point) in test [1] was 57.6 µM; in test [3], above 10 µM. For the same compound, the IC50 – broadly, the midpoint of a concentration-inhibition curve – in test [2] was 11 nM.
In the same order, the values of `CCOc1ccc2c(c1)NC(=O)Nc1cnc(C#N)c(n1)OCCCCCO2` are above 59.3 µM, above 10 µM and 55 nM.
Compound `N#Cc1ncc2nc1OC/C=C\COc1ccc(OCCCN3CCOCC3)cc1NC(=O)N2` showed an EC50 in test [1] above 59.3 µM. In test [2], this compound had an IC50 of 4 nM.
`N#Cc1ncc2nc1OC/C=C\COc1ccc(OCCCCN3CCOCC3)cc1NC(=O)N2` had an EC50 in test [1] of 7.56 µM. The IC50 in test [2] came to 4 nM.
As for `N#Cc1ncc2nc1OCC/C=C\COc1ccc(Br)cc1NC(=O)N2`, the results for the EC50 in test [1] and in test [3] were 29.4 µM and above 10 µM, respectively. The IC50 in test [2] came to 12 nM.
In the same order, the values of `N#Cc1ncc2nc1OCCCCCOc1ccc(OCCCN3CCOCC3)cc1NC(=O)N2` are 4.03 µM, above 10 µM and 7 nM.
Regarding `N#Cc1ncc2nc1OC/C=C\COc1ccc(OCCCCCN3CCCOC3)cc1NC(=O)N2`, in test [1], the EC50 is above 59.3 µM. In test [2], this compound showed an IC50 of 2 nM.
`N#Cc1ncc2nc1OCCCCOc1ccc(OCCCN3CCOCC3)cc1NC(=O)N2` registered an EC50 in test [1] above 59.3 µM. The same compound yielded an IC50 in test [2] of 2 nM.
In the same order, the values of `N#Cc1ncc2nc1OCCCCOc1ccc(OCCCCN3CCOCC3)cc1NC(=O)N2` are above 59.3 µM and 4 nM.
`N#Cc1ncc2nc1OCCCCOc1ccc(OCCCCCN3CCCOC3)cc1NC(=O)N2`: the EC50 in test [1] is above 59.3 µM. In addition, in test [2], 3 nM corresponded to half-maximal inhibition (IC50).
The compound `N#Cc1ncc2nc1OCCCCCOc1ccc(OCCCCN3CCOCC3)cc1NC(=O)N2` displayed an IC50 in test [2] of 3 nM.
Regarding `Cc1ccc2c(c1)NC(=O)Nc1cnc(C#N)c(n1)OCC/C=C\CO2`, the EC50 was above 59.3 µM in test [1] and above 10 µM in test [3]. In test [2], inhibition was half-maximal at 15 nM (IC50).
Take `N#Cc1ncc2nc1OCC/C=C\COc1ccc(CCOC3CCCCO3)cc1NC(=O)N2` (stereo not drawn): in test [2], half-maximal inhibition (IC50) required 108 nM. Further, the EC50 in test [3] was above 10 µM.
Take `N#Cc1ncc2nc1OCCCCCOc1ccc(OCCCCCN3CCOCC3)cc1NC(=O)N2`: the values for the EC50 in test [1] and in test [3] were 8.87 µM and above 10 µM, respectively. It took 3 nM to reach half-maximal inhibition in test [2] (IC50).
As to `CC(=O)Nc1ccc2c(c1)NC(=O)Nc1cnc(C#N)c(n1)OCCCCCO2`, 8 nM corresponded to half-maximal inhibition in test [2] (IC50).
In the case of `N#Cc1ncc2nc1OCCCCCOc1ccc(Br)cc1NC(=O)N2`, the EC50 in test [1] was 52.8 µM; in test [3] it was above 10 µM. The same compound came in with an IC50 in test [2] of 12 nM.
The corresponding values for `N#Cc1ncc2nc1OCCCCCOc1ccccc1NC(=O)N2` are above 59.3 µM, above 10 µM and 16 nM.
Turning to `N#Cc1ncc2nc1OCC/C=C\COc1ccc(CCO)cc1NC(=O)N2`, in test [2], the IC50 was 97 nM. Besides, in test [3], the EC50 was above 10 µM.
In test [2], `Cc1ccc2c(c1)NC(=O)Nc1cnc(C#N)c(n1)OCCCCCO2` returned an IC50 of 8 nM.
Consider `N#Cc1ncc2nc1OCCCCCOc1ccc(CCO)cc1NC(=O)N2`, for which the EC50 in test [1] is above 59.3 µM; in test [3] it was above 10 µM. The same compound registered an IC50 in test [2] of 39 nM.
The corresponding values for `N#Cc1ncc2nc1OCC/C=C\COc1ccc(CCCOC3CCCCO3)cc1NC(=O)N2` (stereo not drawn) are above 59.3 µM, above 10 µM and 91 nM.
Take `N#Cc1ncc2nc1OCCCCCOc1ccc(CCCO)cc1NC(=O)N2`: the EC50 in test [1] was above 59.3 µM; in test [3], above 10 µM. The compound further registered an IC50 in test [2] of 24 nM.
In the same order, the values of `N#Cc1ncc2nc1OCC/C=C\COc1ccc(CCCO)cc1NC(=O)N2` are above 59.3 µM, above 10 µM and 69 nM.
For the compound `N#Cc1ncc2nc1OCC/C=C\COc1ccc(OCCOC3CCCCO3)cc1NC(=O)N2` (stereo not drawn), the figures for the EC50 in test [1] and in test [3] were 30.9 µM and above 10 µM, respectively. This compound showed an IC50 in test [2] of 19 nM.
The corresponding values for `N#Cc1ncc2nc1OCC/C=C\COc1ccc(O)cc1NC(=O)N2` are above 59.3 µM, above 10 µM and 34 nM.
`COc1ccc2c(c1)NC(=O)Nc1cnc(C#N)c(n1)OCC/C=C\CO2`: the EC50 in test [1] is above 59.3 µM; in test [3] it was above 10 µM. The compound also had an IC50 in test [2] of 37 nM.
The corresponding values for `N#Cc1ncc2nc1OCC/C=C\COc1ccc(OCCO)cc1NC(=O)N2` are above 59.3 µM, above 10 µM and 13 nM.
In the same order, the values of `CCOc1ccc2c(c1)NC(=O)Nc1cnc(C#N)c(n1)OCC/C=C\CO2` are above 59.3 µM, above 10 µM and 19 nM.
`CC(C)(C)[Si](Oc1ccc2c(c1)NC(=O)Nc1cnc(C#N)c(n1)OCC/C=C\CO2)(c1ccccc1)c1ccccc1`: the IC50 in test [2] was above 10000 nM.
Same read-out and setting: to `N#Cc1ncc2nc1OCC/C=C\COc1ccc(OCCCCN3CCOCC3)cc1NC(=O)N2` belongs 6 nM.
On to `N#Cc1ncc2nc1OCC/C=C\COc1ccc(OCCCCCN3CCOCC3)cc1NC(=O)N2`, for which the EC50 in test [1] is 5.27 µM; in test [3], above 10 µM. The compound further yielded an IC50 in test [2] of 5 nM.
The corresponding values for `COc1ccc2c(c1)NC(=O)Nc1cnc(C#N)c(n1)OCCCCCO2` are above 59.3 µM, above 10 µM and 25 nM.
For the compound `CCOc1ccc(OCC)c(NC(=O)Nc2cnc(C#N)cn2)c1`, the midpoint of inhibition in test [2], the IC50, lay at 31 nM.
`COc1ccc(NC(C)=O)cc1NC(=O)Nc1cnc(C#N)cn1` displayed an IC50 in test [2] of 22 nM.
Take `N#Cc1ncc2nc1OCCCCOc1ccc(Cl)cc1NC(=O)N2`: the EC50 in test [1] is above 59.3 µM; in test [3] it was above 10 µM.
On to `CN(C)CCOc1ccc2c(c1)NC(=O)Nc1cnc(C#N)c(n1)OCC/C=C\CO2`, for which the EC50 is 30.4 µM in test [1] and above 10 µM in test [3]. The compound also returned an IC50 in test [2] of 15 nM.
With `N#Cc1ncc2nc1OCC/C=C\COc1ccccc1NC(=O)N2`, the EC50 was 40 µM in test [1] and above 10 µM in test [3]. This compound also yielded an IC50 in test [2] of 12 nM.
In the same order, the values of `N#Cc1ncc2nc1OCC/C=C\COc1ccc(OCCCN3CCOCC3)cc1NC(=O)N2` are above 59.3 µM, above 10 µM and 5 nM.
In test [1], `CC(=O)Nc1ccc2c(c1)NC(=O)Nc1cnc(C#N)c(n1)OCC/C=C\CO2` returned an EC50 of 39.9 µM. Besides, the IC50 in test [2] was 16 nM; in test [3] it was above 10 µM.
As for `N#Cc1ncc2nc1OCCCCCOc1ccc(OCCO)cc1NC(=O)N2`, the EC50 is above 59.3 µM in test [1] and above 10 µM in test [3]. In test [2], this compound displayed an IC50 of 11 nM.
In the same order, the values of `N#Cc1ncc2nc1OCC/C=C\COc1ccc(Cl)cc1NC(=O)N2` are 11.9 µM, above 10 µM and 10 nM.
`N#Cc1ncc2nc1OC/C=C\COc1ccc(Cl)cc1NC(=O)N2`: the values for the EC50 in test [1] and in test [3] were above 59.3 µM and above 10 µM, respectively. The compound also displayed an IC50 in test [2] of 5 nM.
